In patent US20250382344A1, “Soluble GLP1/GIP/NPY2 Receptor Triple Agonists” (Boehringer Ingelheim International GmH, priority 2024, published 2025):
Like-named read-outs stand apart in the source and are kept apart here.

Columns and labels:
[1] = biological target: T1, hGLP1R (Homo sapiens, UniProt P43220); test: hGLP1R CreLuc assay in 0.5% and 100% plasma (HEK-293 CRE-luciferase reporter cells); type: cell-based; conditions: HEK-293 reporter cells
T1 construct: expressed in transfected cells; host or cells: HEK-293 CRE-luciferase reporter cells
T1 sequence (P43220 24-463): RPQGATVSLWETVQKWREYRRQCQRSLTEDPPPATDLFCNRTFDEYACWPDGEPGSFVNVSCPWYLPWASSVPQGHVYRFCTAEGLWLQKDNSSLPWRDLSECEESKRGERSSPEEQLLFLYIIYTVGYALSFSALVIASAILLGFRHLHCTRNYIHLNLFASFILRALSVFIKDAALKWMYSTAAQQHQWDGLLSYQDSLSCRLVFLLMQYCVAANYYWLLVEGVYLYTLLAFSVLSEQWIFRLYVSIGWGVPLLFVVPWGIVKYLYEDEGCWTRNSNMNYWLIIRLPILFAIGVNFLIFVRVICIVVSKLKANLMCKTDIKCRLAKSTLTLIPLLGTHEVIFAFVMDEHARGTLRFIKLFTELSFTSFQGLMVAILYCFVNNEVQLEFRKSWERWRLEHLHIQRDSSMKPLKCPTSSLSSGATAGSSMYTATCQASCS

[2] = biological target: T2, hGIPR (Homo sapiens, UniProt P48546); test: hGIPR CreLuc assay in 0.5% and 100% plasma (CHO CRE-luciferase reporter cells); type: cell-based
T2 construct: expressed in transfected cells; host or cells: CHO CRE-luciferase reporter cells
T2 sequence (P48546 22-466): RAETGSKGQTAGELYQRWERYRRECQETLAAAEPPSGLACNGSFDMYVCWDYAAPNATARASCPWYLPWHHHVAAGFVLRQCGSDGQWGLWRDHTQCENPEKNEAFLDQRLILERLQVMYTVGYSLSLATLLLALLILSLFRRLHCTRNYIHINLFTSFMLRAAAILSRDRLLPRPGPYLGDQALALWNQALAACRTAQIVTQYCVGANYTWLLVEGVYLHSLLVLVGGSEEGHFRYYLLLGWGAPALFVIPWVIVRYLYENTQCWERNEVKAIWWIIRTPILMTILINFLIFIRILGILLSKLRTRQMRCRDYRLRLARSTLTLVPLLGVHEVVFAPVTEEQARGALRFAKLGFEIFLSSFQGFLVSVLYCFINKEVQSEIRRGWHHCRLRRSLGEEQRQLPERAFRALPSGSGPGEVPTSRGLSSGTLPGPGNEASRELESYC

[3] = biological target: T3, hNPY2R (Homo sapiens, UniProt P49146); test: hNPY2R CreLuc assay in 0.5% and 100% plasma (HEK-293 CRE-luciferase reporter cells); type: cell-based; conditions: HEK-293 reporter cells
T3 construct: expressed in transfected cells; host or cells: HEK-293 CRE-luciferase reporter cells
T3 sequence (P49146 1-381): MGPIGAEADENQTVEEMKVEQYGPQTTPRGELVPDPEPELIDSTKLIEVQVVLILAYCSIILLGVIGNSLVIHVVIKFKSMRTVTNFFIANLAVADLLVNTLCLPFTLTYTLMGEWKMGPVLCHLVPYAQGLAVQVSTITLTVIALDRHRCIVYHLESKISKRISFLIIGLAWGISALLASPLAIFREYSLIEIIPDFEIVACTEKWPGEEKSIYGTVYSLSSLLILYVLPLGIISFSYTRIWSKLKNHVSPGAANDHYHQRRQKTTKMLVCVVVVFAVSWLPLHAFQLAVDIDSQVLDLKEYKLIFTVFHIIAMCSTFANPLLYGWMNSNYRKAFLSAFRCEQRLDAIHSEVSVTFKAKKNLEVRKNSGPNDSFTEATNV

[4] = Solubility in 0.1 M phosphate buffer at pH 7; type: physicochemical; conditions: 0.1 M phosphate buffer at pH 7, 10 mg/mL final peptide concentration, shaking 2 hours at room temperature, peptides as TFA-salts; measured sample pH 6.5-7.0
[5] = 0.5% human plasma, read-out: hGIPR 0.5% hP
[6] = 0.5% human plasma, read-out: hNPY2R 0.5% hP
[7] = 100% human plasma, read-out: hNPY2R 100% hP

Row | EC50 ([1]; 0.5% human plasma, read-out: hGLP1R 0.5% hP) [nM] | EC50 ([1]; 100% human plasma, read-out: hGLP1R 100% hP) [nM] | EC50 [2, 5] [nM] | EC50 [3, 6] [nM] | EC50 ([2]; 100% human plasma, read-out: hGIPR 100% hP) [nM] | EC50 [3, 7] [nM] | solubility at 2 h [4] [µg/mL] | SMILES
1 | 0.6 | 3.8 | 0.5 | 7.2 |  |  |  | CC[C@H](C)[C@H](NC(=O)[C@H](Cc1ccccc1)NC(=O)[C@H](C)NC(=O)C(C)(C)NC(=O)[C@H](CCC(N)=O)NC(=O)[C@H](C)NC(=O)[C@H](CCC(N)=O)NC(=O)[C@H](CCCCN)NC(=O)[C@H](CC(=O)O)NC(=O)[C@H](CC(C)C)NC(=O)C(C)(C)NC(=O)[C@@H](NC(=O)[C@H](CO)NC(=O)[C@H](Cc1ccc(O)cc1)NC(=O)[C@H](CC(=O)O)NC(=O)[C@H](CO)NC(=O)[C@@H](NC(=O)[C@H](Cc1ccccc1)NC(=O)[C@@H](NC(=O)CNC(=O)[C@H](CCC(=O)O)NC(=O)C(C)(C)NC(=O)[C@@H](N)Cc1ccc(O)cc1)[C@@H](C)O)[C@@H](C)O)[C@@H](C)CC)C(=O)N[C@@H](CCCNC(=N)N)C(=O)N[C@@H](Cc1c[nH]cn1)C(=O)N[C@@H](CC(C)C)C(=O)N[C@H](C(=O)N[C@@H](CC(N)=O)C(=O)N[C@@H](CCCCNC(=O)[C@@H](N)CCCCNC(=O)CC[C@H](NC(=O)CC[C@H](NC(=O)CC[C@H](NC(=O)CC[C@H](NC(=O)CC[C@H](NC(=O)CC[C@H](NC(=O)CCCCCCCCCCCCCCCCCCC(=O)O)C(=O)O)C(=O)O)C(=O)O)C(=O)O)C(=O)O)C(=O)O)C(=O)NC(C)(C)C(=O)N[C@H](C(=O)N[C@@H](CCCNC(=N)N)C(=O)N[C@@H](CCC(N)=O)C(=O)N[C@@H](CCCNC(=N)N)C(=O)N[C@@H](Cc1ccc(O)cc1)C(N)=O)[C@@H](C)O)[C@@H](C)CC [Compound 81, Y-Aib-E-G-T-F-T-S-D-Y-S-I-Aib-L-D-K-Q-A-Q-Aib-A-F-I-R-H-L-I-N-K(1,3)-Aib-T-R-Q-R-Y-NH2.C20DA-gGlu-gGlu-gGlu-gGlu-gGlu-gGlu-eLys(1,2)]
2 |  |  | 0.2 |  | 8 | 141 | 4900 | CC[C@H](C)[C@H](NC(=O)[C@H](CC(C)C)NC(=O)[C@H](Cc1c[nH]cn1)NC(=O)[C@H](CCCNC(=N)N)NC(=O)[C@@H](NC(=O)[C@H](Cc1ccccc1)NC(=O)[C@H](C)NC(=O)C(C)(C)NC(=O)[C@H](CCC(N)=O)NC(=O)[C@H](C)NC(=O)[C@H](CCC(N)=O)NC(=O)[C@H](CCCCN)NC(=O)[C@H](CCC(=O)O)NC(=O)[C@H](CC(C)C)NC(=O)C(C)(C)NC(=O)[C@@H](NC(=O)[C@H](CO)NC(=O)[C@H](Cc1ccc(O)cc1)NC(=O)[C@H](CC(=O)O)NC(=O)[C@H](CO)NC(=O)[C@@H](NC(=O)[C@H](Cc1ccccc1)NC(=O)[C@@H](NC(=O)CNC(=O)[C@H](CCC(=O)O)NC(=O)C(C)(C)NC(=O)[C@@H](N)Cc1ccc(O)cc1)[C@@H](C)O)[C@@H](C)O)[C@@H](C)CC)C(C)C)C(=O)N[C@@H](CC(N)=O)C(=O)N[C@@H](CCCCNC(=O)COCCOCCNC(=O)CC[C@H](NC(=O)CC[C@H](NC(=O)CC[C@H](NC(=O)CC[C@H](NC(=O)CC[C@H](NC(=O)CCCCCCCCCCCCCCCCC(=O)O)C(=O)O)C(=O)O)C(=O)O)C(=O)O)C(=O)O)C(=O)NC(C)(C)C(=O)N[C@H](C(=O)N[C@@H](CCCNC(=N)N)C(=O)N[C@@H](CCC(N)=O)C(=O)N[C@@H](CCCNC(=N)N)C(=O)N[C@@H](Cc1ccc(O)cc1)C(N)=O)[C@@H](C)O [Compound 140, Y-Aib-E-G-T-F-T-S-D-Y-S-I-Aib-L-E-K-Q-A-Q-Aib-A-F-V-R-H-L-I-N-K(1,3)-Aib-T-R-Q-R-Y-NH2.C18DA-gGlu-gGlu-gGlu-gGlu-gGlu-OEG(1,2)]
3 |  |  | 0.9 |  |  | 119 | 4500 | CC[C@H](C)[C@H](NC(=O)[C@H](CC(C)C)NC(=O)[C@H](Cc1c[nH]cn1)NC(=O)[C@H](CCCNC(=N)N)NC(=O)[C@@H](NC(=O)[C@H](Cc1ccccc1)NC(=O)[C@H](CCC(=O)O)NC(=O)C(C)(C)NC(=O)[C@H](CCC(N)=O)NC(=O)[C@H](C)NC(=O)[C@H](CCC(N)=O)NC(=O)[C@H](CCCCN)NC(=O)[C@H](CCC(=O)O)NC(=O)[C@H](CC(C)C)NC(=O)C(C)(C)NC(=O)[C@@H](NC(=O)[C@H](CO)NC(=O)[C@H](Cc1ccc(O)cc1)NC(=O)[C@H](CC(=O)O)NC(=O)[C@H](CO)NC(=O)[C@@H](NC(=O)[C@H](Cc1ccccc1)NC(=O)[C@@H](NC(=O)CNC(=O)[C@H](CCC(=O)O)NC(=O)C(C)(C)NC(=O)[C@@H](N)Cc1ccc(O)cc1)[C@@H](C)O)[C@@H](C)O)[C@@H](C)CC)C(C)C)C(=O)N[C@@H](CC(N)=O)C(=O)N[C@@H](CCCCNC(=O)[C@@H](N)CCCCNC(=O)CC[C@H](NC(=O)CC[C@H](NC(=O)CC[C@H](NC(=O)CC[C@H](NC(=O)CC[C@H](NC(=O)CC[C@H](NC(=O)CCCCCCCCCCCCCCCCCCC(=O)O)C(=O)O)C(=O)O)C(=O)O)C(=O)O)C(=O)O)C(=O)O)C(=O)N[C@@H](CC(C)C)C(=O)N[C@H](C(=O)N[C@@H](CCCNC(=N)N)C(=O)N[C@@H](CCC(N)=O)C(=O)N[C@@H](CCCNC(=N)N)C(=O)N[C@@H](Cc1ccc(O)cc1)C(N)=O)[C@@H](C)O [Compound 39, Y-Aib-E-G-T-F-T-S-D-Y-S-I-Aib-L-E-K-Q-A-Q-Aib-E-F-V-R-H-L-I-N-K(1,3)-L-T-R-Q-R-Y-NH2.C20DA-gGlu-gGlu-gGlu-gGlu-gGlu-gGlu-eLys(1,2)]
4 |  |  | 0.8 | 41.3 |  |  | 10000 | CC[C@H](C)[C@H](NC(=O)[C@H](CO)NC(=O)[C@H](Cc1ccc(O)cc1)NC(=O)[C@H](CC(=O)O)NC(=O)[C@H](CO)NC(=O)[C@@H](NC(=O)[C@H](Cc1ccccc1)NC(=O)[C@@H](NC(=O)CNC(=O)[C@H](CCC(=O)O)NC(=O)C(C)(C)NC(=O)[C@@H](N)Cc1ccc(O)cc1)[C@@H](C)O)[C@@H](C)O)C(=O)N[C@@H](C)C(=O)N[C@@H](CC(C)C)C(=O)N[C@@H](CCC(=O)O)C(=O)N[C@@H](CCCCN)C(=O)N[C@@H](CCC(N)=O)C(=O)N[C@@H](C)C(=O)N[C@@H](CCC(N)=O)C(=O)NC(C)(C)C(=O)N[C@@H](C)C(=O)N[C@@H](Cc1ccccc1)C(=O)N[C@H](C(=O)N[C@@H](CCCNC(=N)N)C(=O)N[C@@H](Cc1c[nH]cn1)C(=O)N[C@@H](CC(C)C)C(=O)N[C@H](C(=O)N[C@@H](CC(N)=O)C(=O)N[C@@H](CCCCNC(=O)CC[C@H](NC(=O)CC[C@H](NC(=O)CC[C@H](NC(=O)CC[C@H](NC(=O)CC[C@H](NC(=O)CC[C@H](NC(=O)CCCCCCCCCCCCCCCCCCC(=O)O)C(=O)O)C(=O)O)C(=O)O)C(=O)O)C(=O)O)C(=O)O)C(=O)NC(C)(C)C(=O)N[C@H](C(=O)N[C@@H](CCCNC(=N)N)C(=O)N[C@@H](CCC(N)=O)C(=O)N[C@@H](CCCNC(=N)N)C(=O)N[C@@H](Cc1ccc(O)cc1)C(N)=O)[C@@H](C)O)[C@@H](C)CC)C(C)C [Compound 29, Y-Aib-E-G-T-F-T-S-D-Y-S-I-A-L-E-K-Q-A-Q-Aib-A-F-V-R-H-L-I-N-K(1,3)-Aib-T-R-Q-R-Y-NH2.C20DA-gGlu-gGlu-gGlu-gGlu-gGlu-gGlu(1,2)]
